Results published in PMC9415638, “Discovery of novel thiazolyl-pyrazolines as dual EGFR and VEGFR-2 inhibitors endowed with in vitro antitumor activity towards non-small lung cancer” (Journal of Enzyme Inhibition and Medicinal Chemistry, 2022).

Key:
p-EGFR = assay: Western blotting in A549 cells; assay type: cell-based, human; details: Western blot, vs untreated control
From the text: (§1) Figure 3. […] (B) The relative protein expression level of p-EGFR normalised with total EGFR was quantified by the Image J software (C) The relative protein expression level of p-VEGFR-2 normalised with total VEGFR-2. The values are expressed as the mean ± SEM based on three different experiments. ***p < 0.001 indicate a significant difference compared with control.
(§2) The protein extraction and quantification were done as previously described.

p-VEGFR-2 = assay: Western blotting in A549 cells; assay type: cell-based, human; details: Western blot, vs untreated control
From the text: as §1, §2

CDK5 = CDK5 (Homo sapiens, UniProt Q00535); assay: Kinase selectivity profiling, Z'-LYTE FRET
K562 leukaemia cells = assay: Anti-proliferative MTT assay; assay type: cell-based; details: Homo sapiens, 24 h, read-out: % Growth inhibition ± SEM K562
Experimental: (§3) To evaluate the anti-proliferative activity of the synthesised thiazolyl-pyrazoline derivatives (7a–7d, 10a–10d, and 13a–13f), a preliminary in vitro one dose (10 µM) anticancer assay was performed. Nine cell lines derived from five tumour subpanels were examined; leukaemia (K562 and KG-1a), breast (MCF-7, BT-549 and HCC70), lung (A549 and H441), colon (HCT116) and liver (HepG2) cancer cell lines. The compounds were added at a single concentration (10 µM) and the cultures were incubated for 24 h, then the per cent growth inhibition (%GI) was calculated.
(§4) Human leukaemia (K562 and KG-1a), breast (MCF-7, BT-549 and HCC70), lung (A549, H441, NCI-H1650 and NCI-H1975), colon (HCT116), liver (HepG2) cancer cell lines and WI-38 human lung fibroblast cell line were obtained from the American Type Culture Collection (ATCC; Manassas, VA) and were cultured in their suitable media containing 10% foetal bovine serum (FBS; Sigma-Aldrich) in a humidified atmosphere with 5% CO2 at 37 °C. Gefitinib and vandetanib were purchased from Sigma-Aldrich. All chemicals used in this study were analytical or cell-culture grade.
(§5) Cytotoxicity was measured using the MTT assay. Human leukaemia (K562 and KG-1a), breast (MCF-7, BT-549 and HCC70), lung (A549, H441, NCI-H1650 and NCI-H1975), colon (HCT116), liver (HepG2) cancer cell lines and WI-38 human lung fibroblast cell line were plated at a density of 1 × 10^4 cells per well in 96-well plates overnight and then treated with the compounds. After 24 h treatment, 20 μL of MTT solution (2 mg/mL in phosphate-buffered saline [PBS]) was added to each well and the cells were cultured for another 4 h at 37 °C. The medium was aspirated and 150 μL DMSO was added to solubilise MTT formazan crystals. The plates were then shaken, and the optical density was determined at 570 nm using an ELISA plate reader (Model 550, Bio-Rad, Hercules, CA). At least three independent experiments were performed. The IC50 values were calculated using GraphPad Prism 5 (Version 5.01, GraphPad Software, San Diego, CA).

[1] = tested on: MCF-7 breast cancer cells; assay: Anti-proliferative MTT assay; assay type: cell-based; details: Homo sapiens, MCF7, 24 h, read-out: % Growth inhibition ± SEM MCF-7
Experimental: as §3, §4, §5

HepG2 liver cancer cells = assay: Anti-proliferative MTT assay; assay type: cell-based; details: Homo sapiens, 24 h, read-out: % Growth inhibition ± SEM HepG2
Experimental: as §3, §4, §5

KG-1a leukaemia cells = assay: Anti-proliferative MTT assay; assay type: cell-based; details: Homo sapiens, 24 h, read-out: % Growth inhibition ± SEM KG-1a
Experimental: as §3, §4, §5

[2] = tested on: BT-549 breast cancer cells; assay: Anti-proliferative MTT assay; assay type: cell-based; details: Homo sapiens, 24 h, read-out: % Growth inhibition ± SEM BT-549
Experimental: as §3, §4, §5

[3] = tested on: HCT116 colon cancer cells; assay: Anti-proliferative MTT assay; assay type: cell-based; details: Homo sapiens, HCT-116, 24 h, read-out: % Growth inhibition ± SEM HCT116
Experimental: as §3, §4, §5

[4] = tested on: HCC70 breast cancer cells; assay: Anti-proliferative MTT assay; assay type: cell-based; details: Homo sapiens, 24 h, read-out: % Growth inhibition ± SEM HCC70
Experimental: as §3, §4, §5

CLK1 = CLK1 (Homo sapiens, UniProt P49759); assay: Kinase selectivity profiling, Z'-LYTE FRET
[5] = tested on: NCI-H1650 cells (EGFR exon19 deletion delE746-A750); assay: MTT assay on EGFR-mutated NSCLC cells; assay type: cell-based; details: Homo sapiens
Experimental: (§6) All chemicals used in this study were analytical or cell-culture grade.
(§7) Cytotoxicity was measured using the MTT assay. […] The medium was aspirated and 150 μL DMSO was added to solubilise MTT formazan crystals. The plates were then shaken, and the optical density was determined at 570 nm using an ELISA plate reader (Model 550, Bio-Rad, Hercules, CA). At least three independent experiments were performed.

[6] = tested on: NCI-H1975 cells (EGFR L858R/T790M); assay: MTT assay on EGFR-mutated NSCLC cells; assay type: cell-based; details: Homo sapiens, EGFR L858R/T790M double mutation
Experimental: as §6, §7

TEK = TEK (Homo sapiens, UniProt Q02763); assay: Kinase selectivity profiling, Z'-LYTE FRET
CDK1 = CDK1 (Homo sapiens, UniProt P06493); assay: Kinase selectivity profiling, Z'-LYTE FRET
AKT1 = AKT1 (Homo sapiens, UniProt P31749); assay: Kinase selectivity profiling, Z'-LYTE FRET
EGFR = EGFR (Homo sapiens, UniProt P00533); assay: EGFR kinase assay (PGT-coated 96-well plates); assay type: biochemical; details: read-out: IC50 (nM) ± SEM EGFR
Experimental: (§8) The EGFR kinase assay was carried out in 96-well plates coated with PGT (poly l-glutamic acid l-tyrosine, 4:1, Sigma Aldrich, St. Louis, MO) as previously described. IC50 values were calculated using GraphPad Prism 5. Each experiment was carried out at least three times. The VEGFR-2 kinase assay was carried out in 96-well streptavidin coated plate using recombinant human VEGFR-2/KDR ELISA kit according to manufacturer’s instructions.

[7] = biological target: T1, recombinant human VEGFR-2/KDR (Homo sapiens, UniProt P35968); assay: VEGFR-2 kinase assay (VEGFR-2/KDR ELISA kit); assay type: biochemical; details: read-out: IC50 (nM) ± SEM VEGFR-2
T1 construct: purchased
Experimental: as §8

[8] = tested on: WI-38 human lung fibroblast cells; assay: MTT cytotoxicity assay on normal cells; assay type: cell-based; details: for IC50: Homo sapiens, WI-38, normal lung fibroblasts, MTT, 24 h, n = 3, read-out: IC50 (µM) ± SEM WI-38; for Mean tumour selectivity: S. I. (WI-38/A549 and H441)
Experimental: as §6, §7

T1 sequence (P35968 20-1356): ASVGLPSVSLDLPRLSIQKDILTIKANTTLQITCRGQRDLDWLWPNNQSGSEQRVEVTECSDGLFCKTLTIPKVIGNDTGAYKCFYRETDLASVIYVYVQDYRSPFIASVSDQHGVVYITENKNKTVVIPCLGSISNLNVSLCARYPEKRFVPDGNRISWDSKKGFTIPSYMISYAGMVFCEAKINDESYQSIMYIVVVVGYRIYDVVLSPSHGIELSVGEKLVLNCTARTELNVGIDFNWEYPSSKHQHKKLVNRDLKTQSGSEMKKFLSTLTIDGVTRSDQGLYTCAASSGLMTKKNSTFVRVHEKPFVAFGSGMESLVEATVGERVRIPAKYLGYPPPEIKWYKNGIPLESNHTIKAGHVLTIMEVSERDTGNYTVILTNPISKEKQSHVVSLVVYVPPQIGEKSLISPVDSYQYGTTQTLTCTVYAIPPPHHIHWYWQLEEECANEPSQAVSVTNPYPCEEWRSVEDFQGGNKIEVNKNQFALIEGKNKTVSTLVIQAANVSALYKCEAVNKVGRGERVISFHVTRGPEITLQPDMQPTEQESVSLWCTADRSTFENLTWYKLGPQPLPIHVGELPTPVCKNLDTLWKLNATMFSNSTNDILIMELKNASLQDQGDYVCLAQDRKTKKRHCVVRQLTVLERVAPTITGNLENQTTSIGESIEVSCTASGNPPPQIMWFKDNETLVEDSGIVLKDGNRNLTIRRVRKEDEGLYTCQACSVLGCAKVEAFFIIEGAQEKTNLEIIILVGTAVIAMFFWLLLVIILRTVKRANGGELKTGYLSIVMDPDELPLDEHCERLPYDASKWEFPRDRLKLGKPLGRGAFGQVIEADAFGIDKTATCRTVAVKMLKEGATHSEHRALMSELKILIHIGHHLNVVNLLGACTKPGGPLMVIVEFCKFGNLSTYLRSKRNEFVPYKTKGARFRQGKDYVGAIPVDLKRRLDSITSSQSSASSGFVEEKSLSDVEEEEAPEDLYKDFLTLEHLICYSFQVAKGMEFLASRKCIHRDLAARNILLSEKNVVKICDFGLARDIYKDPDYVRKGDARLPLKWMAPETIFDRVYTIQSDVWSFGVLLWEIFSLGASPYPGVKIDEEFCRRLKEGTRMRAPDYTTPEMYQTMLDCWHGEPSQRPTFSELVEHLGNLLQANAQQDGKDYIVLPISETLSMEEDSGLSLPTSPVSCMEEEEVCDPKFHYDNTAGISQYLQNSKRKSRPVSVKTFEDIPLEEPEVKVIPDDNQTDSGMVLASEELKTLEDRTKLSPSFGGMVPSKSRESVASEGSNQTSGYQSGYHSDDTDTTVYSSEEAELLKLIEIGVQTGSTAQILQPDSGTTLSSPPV
EGFR, sequence (P00533 25-1210): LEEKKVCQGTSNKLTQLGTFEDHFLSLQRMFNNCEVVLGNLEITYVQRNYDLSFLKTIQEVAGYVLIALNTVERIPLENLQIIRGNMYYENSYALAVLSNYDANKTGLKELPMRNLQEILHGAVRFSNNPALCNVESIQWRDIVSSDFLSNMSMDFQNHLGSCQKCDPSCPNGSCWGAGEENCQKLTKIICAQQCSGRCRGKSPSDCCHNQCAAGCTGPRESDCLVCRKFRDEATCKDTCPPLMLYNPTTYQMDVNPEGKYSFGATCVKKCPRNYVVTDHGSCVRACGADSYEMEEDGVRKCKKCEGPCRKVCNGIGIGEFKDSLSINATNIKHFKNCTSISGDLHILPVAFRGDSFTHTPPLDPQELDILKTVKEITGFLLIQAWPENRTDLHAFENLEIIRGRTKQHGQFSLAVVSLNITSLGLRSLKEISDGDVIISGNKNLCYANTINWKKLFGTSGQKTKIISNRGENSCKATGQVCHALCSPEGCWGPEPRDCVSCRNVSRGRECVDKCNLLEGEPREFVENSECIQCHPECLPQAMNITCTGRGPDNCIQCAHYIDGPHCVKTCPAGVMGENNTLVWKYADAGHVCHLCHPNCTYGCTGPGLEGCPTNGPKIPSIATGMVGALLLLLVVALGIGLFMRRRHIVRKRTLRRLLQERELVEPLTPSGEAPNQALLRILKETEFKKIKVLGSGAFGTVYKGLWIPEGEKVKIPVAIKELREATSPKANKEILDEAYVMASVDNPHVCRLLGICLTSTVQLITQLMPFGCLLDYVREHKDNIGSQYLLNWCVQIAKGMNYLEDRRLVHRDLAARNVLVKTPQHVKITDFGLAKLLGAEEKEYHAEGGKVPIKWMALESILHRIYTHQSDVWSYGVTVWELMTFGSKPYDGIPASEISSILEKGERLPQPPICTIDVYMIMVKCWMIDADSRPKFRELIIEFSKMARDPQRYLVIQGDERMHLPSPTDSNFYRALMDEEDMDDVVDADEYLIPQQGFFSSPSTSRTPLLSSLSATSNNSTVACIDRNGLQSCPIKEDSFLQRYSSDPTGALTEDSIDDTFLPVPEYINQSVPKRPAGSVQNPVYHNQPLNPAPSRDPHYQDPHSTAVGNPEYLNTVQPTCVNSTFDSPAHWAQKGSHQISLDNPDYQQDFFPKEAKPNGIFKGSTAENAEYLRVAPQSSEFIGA
CDK1, sequence (P06493 whole entry): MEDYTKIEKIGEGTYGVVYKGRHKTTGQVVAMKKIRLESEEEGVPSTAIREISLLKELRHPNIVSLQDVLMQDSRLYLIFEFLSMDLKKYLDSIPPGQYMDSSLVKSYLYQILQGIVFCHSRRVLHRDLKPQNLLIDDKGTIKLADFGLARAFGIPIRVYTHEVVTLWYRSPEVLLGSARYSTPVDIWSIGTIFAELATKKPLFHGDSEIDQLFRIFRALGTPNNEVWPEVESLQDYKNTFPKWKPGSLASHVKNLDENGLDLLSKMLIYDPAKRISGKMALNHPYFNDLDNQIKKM
CDK1, sequence (P14635 whole entry partner): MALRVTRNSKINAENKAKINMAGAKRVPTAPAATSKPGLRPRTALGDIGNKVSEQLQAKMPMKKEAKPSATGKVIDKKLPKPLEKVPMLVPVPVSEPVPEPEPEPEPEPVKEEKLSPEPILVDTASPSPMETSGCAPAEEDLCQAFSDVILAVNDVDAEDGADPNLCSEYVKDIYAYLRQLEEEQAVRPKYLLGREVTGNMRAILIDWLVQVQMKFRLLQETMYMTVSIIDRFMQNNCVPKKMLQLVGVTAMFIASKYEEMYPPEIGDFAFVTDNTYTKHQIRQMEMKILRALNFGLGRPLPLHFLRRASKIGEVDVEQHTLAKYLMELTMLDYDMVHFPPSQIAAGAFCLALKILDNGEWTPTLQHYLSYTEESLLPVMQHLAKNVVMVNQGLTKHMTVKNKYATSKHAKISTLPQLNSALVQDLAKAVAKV
AKT1, sequence (P31749 whole entry): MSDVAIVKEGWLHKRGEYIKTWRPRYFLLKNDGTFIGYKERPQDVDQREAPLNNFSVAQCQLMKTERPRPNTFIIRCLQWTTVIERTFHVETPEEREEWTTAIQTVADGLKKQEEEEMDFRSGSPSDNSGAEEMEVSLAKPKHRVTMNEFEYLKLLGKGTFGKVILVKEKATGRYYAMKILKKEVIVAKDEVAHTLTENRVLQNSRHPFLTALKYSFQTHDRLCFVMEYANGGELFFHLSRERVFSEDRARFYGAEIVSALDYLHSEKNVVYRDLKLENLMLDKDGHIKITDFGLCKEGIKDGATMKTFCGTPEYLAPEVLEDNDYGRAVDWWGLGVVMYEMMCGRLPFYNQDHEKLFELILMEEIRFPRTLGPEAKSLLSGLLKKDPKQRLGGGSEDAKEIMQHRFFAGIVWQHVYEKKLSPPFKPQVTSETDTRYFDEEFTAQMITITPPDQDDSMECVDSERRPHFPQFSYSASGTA
CLK1, sequence (P49759 whole entry): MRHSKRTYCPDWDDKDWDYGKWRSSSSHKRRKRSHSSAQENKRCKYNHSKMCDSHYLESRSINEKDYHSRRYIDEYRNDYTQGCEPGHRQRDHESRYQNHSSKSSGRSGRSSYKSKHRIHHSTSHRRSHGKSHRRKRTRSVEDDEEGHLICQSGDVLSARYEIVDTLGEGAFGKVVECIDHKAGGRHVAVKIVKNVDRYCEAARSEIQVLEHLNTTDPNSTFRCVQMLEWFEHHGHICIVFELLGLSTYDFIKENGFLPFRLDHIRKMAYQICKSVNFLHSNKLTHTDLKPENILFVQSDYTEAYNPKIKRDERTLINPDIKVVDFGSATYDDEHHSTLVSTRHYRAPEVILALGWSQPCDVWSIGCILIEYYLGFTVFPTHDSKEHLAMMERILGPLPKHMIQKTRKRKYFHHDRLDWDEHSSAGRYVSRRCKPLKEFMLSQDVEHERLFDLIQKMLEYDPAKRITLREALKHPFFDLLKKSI
CDK5, sequence (Q00535 whole entry): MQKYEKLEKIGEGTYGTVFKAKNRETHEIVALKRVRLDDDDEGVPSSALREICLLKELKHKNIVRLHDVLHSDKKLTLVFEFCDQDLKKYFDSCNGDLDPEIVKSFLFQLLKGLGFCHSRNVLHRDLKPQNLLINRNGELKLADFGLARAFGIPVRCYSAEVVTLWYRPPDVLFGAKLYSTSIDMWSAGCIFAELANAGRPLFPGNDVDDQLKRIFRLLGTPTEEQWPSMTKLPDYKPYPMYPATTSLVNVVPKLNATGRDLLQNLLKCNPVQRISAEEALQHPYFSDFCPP
CDK5, sequence (Q15078 whole entry partner): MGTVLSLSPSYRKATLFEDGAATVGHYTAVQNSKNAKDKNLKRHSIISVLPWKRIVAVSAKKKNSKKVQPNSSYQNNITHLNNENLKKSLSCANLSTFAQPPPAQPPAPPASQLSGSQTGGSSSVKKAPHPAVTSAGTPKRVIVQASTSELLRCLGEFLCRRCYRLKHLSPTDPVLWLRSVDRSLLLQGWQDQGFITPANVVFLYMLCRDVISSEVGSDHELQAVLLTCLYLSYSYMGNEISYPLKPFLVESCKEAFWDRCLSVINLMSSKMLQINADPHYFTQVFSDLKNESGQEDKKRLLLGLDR

| IC50 (CDK5) | IC50 (CLK1) | IC50 [5] | IC50 [6] | IC50 (TEK) | IC50 (CDK1) | IC50 (AKT1) | IC50 (EGFR) | IC50 [7] | SMILES | protein expression level of p-EGFR (p-EGFR) | protein expression level of p-VEGFR-2 (p-VEGFR-2) | inhibition at 10 µM (K562 leukaemia cells) | inhibition at 10 µM [1] | inhibition at 10 µM (HepG2 liver cancer cells) | inhibition at 10 µM (KG-1a leukaemia cells) | inhibition at 10 µM [2] | inhibition at 10 µM [3] | inhibition at 10 µM [4] | IC50 [8] | Mean tumour selectivity [8] |
| --- | --- | --- | --- | --- | --- | --- | --- | --- | --- | --- | --- | --- | --- | --- | --- | --- | --- | --- | --- | --- |
| 993 ± 15 nM | 798 ± 19 nM | 3.5 ± 0.2 µM | 4.4 ± 0.6 µM | > 2000 nM | 245 ± 7 nM | 702 ± 24 nM | 32.5 ± 2.2 nM | 43 ± 2.4 nM | COc1ccc(C2CC(c3ccc(Cl)cc3Cl)=NN2c2nc(C)c(C(=O)Nc3ccccc3)s2)cc1OC (stereo not shown) [Compound 10d, 2-(3-(2,4-Dichlorophenyl)-5-(3,4-dimethoxyphenyl)-4,5-dihydro-1H-pyrazol-1-yl)-4-methyl-N-phenylthiazole-5-carboxamide] | significantly downregulated | significantly downregulated | 60.2 ± 2.3% | 60.9 ± 4.3% | 65.5 ± 3.9% | 57.2 ± 3.4% | 40.1 ± 2% | 56.5 ± 2% | 54.1 ± 2.8% | 51.4 ± 3.5 µM | 15.3 |
| 1140 ± 20 nM | 1070 ± 54 nM | 5.7 ± 0.5 µM | 6.2 ± 0.9 µM | > 2000 nM | 310 ± 12 nM | 816 ± 38 nM | 40.7 ± 1 nM | 78.4 ± 1.5 nM | CCOC(=O)c1sc(N2N=C(c3ccc(Cl)cc3Cl)CC2c2ccc(OC)cc2)nc1C (stereo not shown) [Compound 10b, Ethyl-2-(3-(2,4-dichlorophenyl)-5-(4-methoxyphenyl)-4,5-dihydro-1H-pyrazol-1-yl)-4-methylthiazole-5-carboxylate] | significantly downregulated | significantly downregulated | 54.2 ± 3.8% | 48.5 ± 2.3% | 50.6 ± 2.2% | 31 ± 2.5% | 47.2 ± 4.9% | 37.7 ± 3.9% | 41.5 ± 2.1% | 72.4 ± 7.2 µM | 16.1 |
